# Experimental data reported in PubChem BioAssay (NCI).
#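 Cells were grown in 96-well plates and exposed to each compound for 48 hours at five concentrations; endpoints were interpolated linearly between bracketing concentrations, or set to the highest concentration if not reached. Abbreviation: GI50, concentration required for 50% inhibition of growth. TGI: concentration producing complete growth inhibition.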
# Key:
# Assay in all cases: inhibition of tumour cell growth, NCI panel, 48 h
# HL-60(TB) leukemia = test system: HL-60(TB) leukemia
# PC-3 prostate = test system: PC-3 prostate
# 786-0 renal = test system: 786-0 renal
# SN12C renal = test system: SN12C renal
# UACC-62 melanoma = test system: UACC-62 melanoma
# OVCAR-4 ovarian = test system: OVCAR-4 ovarian
# K-562 leukemia = test system: K-562 leukemia
# NCI-H522 lung = test system: NCI-H522 lung
# A498 renal = test system: A498 renal
# UO-31 renal = test system: UO-31 renal
# RPMI-8226 leukemia = test system: RPMI-8226 leukemia
# SW-620 colon = test system: SW-620 colon
# UACC-257 melanoma = test system: UACC-257 melanoma
# HOP-92 NSCLC = test system: HOP-92 NSCLC
# MDA-MB-231 breast = test system: MDA-MB-231 breast
# HCT-15 colon = test system: HCT-15 colon
# HCC-2998 colon = test system: HCC-2998 colon
# KM12 colon = test system: KM12 colon
# CAKI-1 renal = test system: CAKI-1 renal
# SF-268 CNS = test system: SF-268 CNS
# U251 CNS = test system: U251 CNS
# A549 NSCLC = test system: A549 NSCLC
# MALME-3M melanoma = test system: MALME-3M melanoma
# SK-MEL-28 melanoma = test system: SK-MEL-28 melanoma
# OVCAR-5 ovarian = test system: OVCAR-5 ovarian
# TK-10 renal = test system: TK-10 renal
# MDA-MB-435 = test system: MDA-MB-435
# SNB-75 CNS = test system: SNB-75 CNS
# SF-295 CNS = test system: SF-295 CNS
# SR leukemia = test system: SR leukemia
# ACHN renal = test system: ACHN renal
# LOX IMVI melanoma = test system: LOX IMVI melanoma
# RXF 393 renal = test system: RXF 393 renal
# SF-539 CNS = test system: SF-539 CNS
# SK-OV-3 ovarian = test system: SK-OV-3 ovarian
# MOLT-4 leukemia = test system: MOLT-4 leukemia
# EKVX NSCLC = test system: EKVX NSCLC
# T-47D breast = test system: T-47D breast
# HOP-62 NSCLC = test system: HOP-62 NSCLC
# SK-MEL-2 melanoma = test system: SK-MEL-2 melanoma
# SK-MEL-5 melanoma = test system: SK-MEL-5 melanoma
# SNB-19 CNS = test system: SNB-19 CNS
# HT29 colon = test system: HT29 colon
# MCF7 breast = test system: MCF7 breast
# COLO 205 colon = test system: COLO 205 colon
# NCI/ADR-RES ovarian = test system: NCI/ADR-RES ovarian
# HCT-116 colon = test system: HCT-116 colon
# M14 melanoma = test system: M14 melanoma
# NCI-H226 lung = test system: NCI-H226 lung
# NCI-H460 lung = test system: NCI-H460 lung
# DU-145 prostate = test system: DU-145 prostate
# HS 578T breast = test system: HS 578T breast
# NCI-H23 lung = test system: NCI-H23 lung
# OVCAR-3 ovarian = test system: OVCAR-3 ovarian
# OVCAR-8 ovarian = test system: OVCAR-8 ovarian
# BT-549 breast = test system: BT-549 breast
# IGROV1 ovarian = test system: IGROV1 ovarian
compound,measurement,setting,value
CC(=O)O[C@H]1CCC2(C)C(=CCC3C2CCC2(C)/C(=N/OC(=O)c4ccc(N(CCCl)CCCl)cc4)CCC32)C1 (stereo partly specified),GI50,HL-60(TB) leukemia,7.01 µM
same,TGI,HL-60(TB) leukemia,> 100 µM
same,GI50,PC-3 prostate,7.99 µM
same,TGI,PC-3 prostate,> 100 µM
same,GI50,786-0 renal,4.21 µM
same,TGI,786-0 renal,> 100 µM
same,GI50,SN12C renal,5.48 µM
same,TGI,SN12C renal,> 100 µM
same,GI50,UACC-62 melanoma,7.86 µM
same,TGI,UACC-62 melanoma,> 100 µM
same,GI50,OVCAR-4 ovarian,7.78 µM
same,TGI,OVCAR-4 ovarian,> 100 µM
same,GI50,K-562 leukemia,3.9 µM
same,TGI,K-562 leukemia,> 100 µM
same,GI50,NCI-H522 lung,4.88 µM
same,TGI,NCI-H522 lung,> 82.8 µM
same,GI50,A498 renal,3.52 µM
same,TGI,A498 renal,> 62.8 µM
same,GI50,UO-31 renal,1.99 µM
same,TGI,UO-31 renal,> 20.8 µM
same,GI50,RPMI-8226 leukemia,5.68 µM
same,TGI,RPMI-8226 leukemia,> 100 µM
same,GI50,SW-620 colon,> 100 µM
same,TGI,SW-620 colon,> 100 µM
same,GI50,UACC-257 melanoma,> 100 µM
same,TGI,UACC-257 melanoma,> 100 µM
same,GI50,HOP-92 NSCLC,13.8 µM
same,TGI,HOP-92 NSCLC,> 100 µM
same,GI50,MDA-MB-231 breast,4.46 µM
same,TGI,MDA-MB-231 breast,> 100 µM
same,GI50,HCT-15 colon,8.87 µM
same,TGI,HCT-15 colon,> 100 µM
same,GI50,HCC-2998 colon,> 55.5 µM
same,TGI,HCC-2998 colon,> 100 µM
same,GI50,KM12 colon,7.13 µM
same,TGI,KM12 colon,> 100 µM
same,GI50,CAKI-1 renal,3.88 µM
same,TGI,CAKI-1 renal,> 100 µM
same,GI50,SF-268 CNS,2.55 µM
same,TGI,SF-268 CNS,7.71 µM
same,GI50,U251 CNS,1.88 µM
same,TGI,U251 CNS,> 28.8 µM
same,GI50,A549 NSCLC,2.45 µM
same,TGI,A549 NSCLC,8.37 µM
same,GI50,MALME-3M melanoma,> 65.4 µM
same,TGI,MALME-3M melanoma,> 100 µM
same,GI50,SK-MEL-28 melanoma,> 100 µM
same,TGI,SK-MEL-28 melanoma,> 100 µM
same,GI50,OVCAR-5 ovarian,> 72.8 µM
same,TGI,OVCAR-5 ovarian,> 100 µM
same,GI50,TK-10 renal,8.71 µM
same,TGI,TK-10 renal,> 73.6 µM
same,GI50,MDA-MB-435,10.8 µM
same,TGI,MDA-MB-435,> 100 µM
same,GI50,SNB-75 CNS,4.47 µM
same,TGI,SNB-75 CNS,42.7 µM
same,GI50,SF-295 CNS,3.84 µM
same,TGI,SF-295 CNS,> 58 µM
same,GI50,SR leukemia,1.4 µM
same,TGI,SR leukemia,5.98 µM
same,GI50,ACHN renal,5.19 µM
same,TGI,ACHN renal,> 100 µM
same,GI50,LOX IMVI melanoma,2.6 µM
same,TGI,LOX IMVI melanoma,> 100 µM
same,GI50,RXF 393 renal,3.05 µM
same,TGI,RXF 393 renal,45.9 µM
same,GI50,SF-539 CNS,6.89 µM
same,TGI,SF-539 CNS,> 100 µM
same,GI50,SK-OV-3 ovarian,> 100 µM
same,TGI,SK-OV-3 ovarian,> 100 µM
same,GI50,MOLT-4 leukemia,4.91 µM
same,TGI,MOLT-4 leukemia,> 100 µM
same,GI50,EKVX NSCLC,8.78 µM
same,TGI,EKVX NSCLC,> 100 µM
same,GI50,T-47D breast,4.02 µM
same,TGI,T-47D breast,> 100 µM
same,GI50,HOP-62 NSCLC,4.42 µM
same,TGI,HOP-62 NSCLC,24.9 µM
same,GI50,SK-MEL-2 melanoma,32.4 µM
same,TGI,SK-MEL-2 melanoma,> 100 µM
same,GI50,SK-MEL-5 melanoma,20.4 µM
same,TGI,SK-MEL-5 melanoma,> 100 µM
same,GI50,SNB-19 CNS,3.16 µM
same,TGI,SNB-19 CNS,98.2 µM
same,GI50,HT29 colon,4.92 µM
same,TGI,HT29 colon,> 100 µM
same,GI50,MCF7 breast,12.7 µM
same,TGI,MCF7 breast,> 100 µM
same,GI50,COLO 205 colon,> 100 µM
same,TGI,COLO 205 colon,> 100 µM
same,GI50,NCI/ADR-RES ovarian,5.73 µM
same,TGI,NCI/ADR-RES ovarian,> 100 µM
same,GI50,HCT-116 colon,2.34 µM
same,TGI,HCT-116 colon,> 100 µM
same,GI50,M14 melanoma,20.3 µM
same,TGI,M14 melanoma,> 100 µM
same,GI50,NCI-H226 lung,> 45.3 µM
same,TGI,NCI-H226 lung,> 100 µM
same,GI50,NCI-H460 lung,4.65 µM
same,TGI,NCI-H460 lung,> 100 µM
same,GI50,DU-145 prostate,> 89.1 µM
same,TGI,DU-145 prostate,> 100 µM
same,GI50,HS 578T breast,2.41 µM
same,TGI,HS 578T breast,13.5 µM
same,GI50,NCI-H23 lung,6 µM
same,TGI,NCI-H23 lung,> 100 µM
same,GI50,OVCAR-3 ovarian,9.84 µM
same,TGI,OVCAR-3 ovarian,> 100 µM
same,GI50,OVCAR-8 ovarian,4.02 µM
same,TGI,OVCAR-8 ovarian,> 100 µM
same,GI50,BT-549 breast,8.67 µM
same,TGI,BT-549 breast,> 100 µM
CN(C)CCC=C1c2ccccc2C=Cc2ccccc21,TGI,PC-3 prostate,35 µM
same,TGI,786-0 renal,30.5 µM
same,TGI,SN12C renal,32.5 µM
same,TGI,UACC-62 melanoma,30.3 µM
same,TGI,OVCAR-4 ovarian,68.1 µM
same,TGI,K-562 leukemia,56 µM
same,TGI,NCI-H522 lung,37 µM
same,TGI,A498 renal,29.4 µM
same,TGI,UO-31 renal,32 µM
same,TGI,RPMI-8226 leukemia,52.3 µM
same,TGI,SW-620 colon,38.2 µM
same,TGI,UACC-257 melanoma,28.3 µM
same,TGI,HOP-92 NSCLC,34.9 µM
same,TGI,MDA-MB-231 breast,31.5 µM
same,TGI,HCT-15 colon,33.1 µM
same,TGI,HCC-2998 colon,18.5 µM
same,TGI,KM12 colon,35.3 µM
same,TGI,CAKI-1 renal,35.7 µM
same,TGI,SF-268 CNS,30.9 µM
same,TGI,U251 CNS,29.8 µM
same,TGI,A549 NSCLC,39.6 µM
same,TGI,MALME-3M melanoma,31.9 µM
same,TGI,SK-MEL-28 melanoma,31.3 µM
same,TGI,OVCAR-5 ovarian,29.5 µM
same,TGI,IGROV1 ovarian,31.5 µM
same,TGI,TK-10 renal,29.8 µM
same,TGI,MDA-MB-435,36.5 µM
same,TGI,SNB-75 CNS,31.1 µM
same,TGI,SF-295 CNS,32.8 µM
same,TGI,SR leukemia,42.8 µM
same,TGI,ACHN renal,30.9 µM
same,TGI,LOX IMVI melanoma,31.6 µM
same,TGI,RXF 393 renal,34.3 µM
same,TGI,SK-OV-3 ovarian,31.4 µM
same,TGI,MOLT-4 leukemia,42.6 µM
same,TGI,EKVX NSCLC,28.7 µM
same,TGI,T-47D breast,44.8 µM
same,TGI,HOP-62 NSCLC,33 µM
same,TGI,SK-MEL-2 melanoma,32.3 µM
same,TGI,SK-MEL-5 melanoma,27.5 µM
same,TGI,SNB-19 CNS,41.7 µM
same,TGI,HT29 colon,19.2 µM
same,TGI,MCF7 breast,29.9 µM
same,TGI,COLO 205 colon,29.3 µM
same,TGI,NCI/ADR-RES ovarian,31.2 µM
same,TGI,HCT-116 colon,30.7 µM
same,TGI,M14 melanoma,32.6 µM
same,TGI,NCI-H460 lung,28.9 µM
same,TGI,DU-145 prostate,35.4 µM
same,TGI,HS 578T breast,42.3 µM
same,TGI,NCI-H23 lung,35.1 µM
same,TGI,OVCAR-3 ovarian,31.1 µM
same,TGI,OVCAR-8 ovarian,30.5 µM
same,TGI,BT-549 breast,31.8 µM
